Data published in patent US7347997B1, “Method of using a feedstuff additive” (priority 1998, dated 2008).
Where two headings read alike, the source gives them in different places.

What was measured:
weaned piglets = settings: pig, in vivo

SMILES	concentration without any adverse effect on the cell activity (chicken lymphocytes; checking after 28 and after 44 hours) [µg/mL]	concentration without apparent change of proliferation foci / no negative effects on the cell culture (chicken lymphocytes; checking after 20 hours, listed as DOM) [µg/mL]	concentration without apparent change of proliferation foci / no negative effects on the cell culture (chicken lymphocytes; checking after 20 hours, listed as deepoxymetabolite) [µg/mL]	FCR (weaned piglets)	Feedstuff intake/animal/day (weaned piglets)	Losses (total) (weaned piglets)	Weight increase/animal/day (weaned piglets) [g]	action on the cell culture (chicken lymphocytes)	concentration from which a marked adverse effect on the cell activity is present (chicken lymphocytes; checking after 20 hours) [µg/mL]
C=C1[C@@H]2O[C@@H]3C=C(C)C(=O)[C@@H](O)[C@]3(CO)[C@@]1(C)C[C@H]2O [DOM-1]	58	≤ 58	58	–	–	–	–	–	–
CC1=C[C@H]2O[C@@H]3[C@H](O)C[C@](C)([C@@]2(CO)[C@H](O)C1=O)[C@]31CO1 [DON, deoxynivalenol]	–	–	–	1.79	226.3	0	126.2	marked damage to the cells	≥ 0.625
